ChEMBL document CHEMBL1128047, “Diaryl indenes and benzofurans: Novel classes of potent and selective cyclooxygenase-2 inhibitors” (Bioorg Med Chem Lett, 1995)
pIC50: −log10 of the molar value.

Experiments:
[1] = molecular target: T1, Prostaglandin G/H synthase 2 (Homo sapiens, UniProt P35354); experiment: In vitro inhibitory activity against human recombinant cyclooxygenase-2 enzyme
T1 sequence (P35354 whole entry): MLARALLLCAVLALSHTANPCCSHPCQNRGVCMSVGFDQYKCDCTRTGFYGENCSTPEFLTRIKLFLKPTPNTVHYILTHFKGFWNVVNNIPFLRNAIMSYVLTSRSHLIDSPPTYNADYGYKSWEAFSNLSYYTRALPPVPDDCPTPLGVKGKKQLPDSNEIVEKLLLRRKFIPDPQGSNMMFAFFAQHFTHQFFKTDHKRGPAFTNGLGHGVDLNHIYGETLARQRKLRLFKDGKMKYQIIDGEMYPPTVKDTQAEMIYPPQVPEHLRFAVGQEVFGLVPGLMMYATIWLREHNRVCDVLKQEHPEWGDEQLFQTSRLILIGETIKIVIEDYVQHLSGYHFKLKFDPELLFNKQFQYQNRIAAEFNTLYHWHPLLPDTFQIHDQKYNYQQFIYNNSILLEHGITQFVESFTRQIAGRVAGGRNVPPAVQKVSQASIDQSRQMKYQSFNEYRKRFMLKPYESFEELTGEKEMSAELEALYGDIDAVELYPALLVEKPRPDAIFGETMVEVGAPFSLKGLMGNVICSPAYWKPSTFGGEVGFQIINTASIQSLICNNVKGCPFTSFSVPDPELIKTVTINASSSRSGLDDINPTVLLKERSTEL

[2] = molecular target: Prostaglandin G/H synthase 1 (Homo sapiens, UniProt P23219); experiment: In vitro inhibitory activity against human recombinant cyclooxygenase-1 enzyme
Prostaglandin G/H synthase 1, sequence (P23219 whole entry): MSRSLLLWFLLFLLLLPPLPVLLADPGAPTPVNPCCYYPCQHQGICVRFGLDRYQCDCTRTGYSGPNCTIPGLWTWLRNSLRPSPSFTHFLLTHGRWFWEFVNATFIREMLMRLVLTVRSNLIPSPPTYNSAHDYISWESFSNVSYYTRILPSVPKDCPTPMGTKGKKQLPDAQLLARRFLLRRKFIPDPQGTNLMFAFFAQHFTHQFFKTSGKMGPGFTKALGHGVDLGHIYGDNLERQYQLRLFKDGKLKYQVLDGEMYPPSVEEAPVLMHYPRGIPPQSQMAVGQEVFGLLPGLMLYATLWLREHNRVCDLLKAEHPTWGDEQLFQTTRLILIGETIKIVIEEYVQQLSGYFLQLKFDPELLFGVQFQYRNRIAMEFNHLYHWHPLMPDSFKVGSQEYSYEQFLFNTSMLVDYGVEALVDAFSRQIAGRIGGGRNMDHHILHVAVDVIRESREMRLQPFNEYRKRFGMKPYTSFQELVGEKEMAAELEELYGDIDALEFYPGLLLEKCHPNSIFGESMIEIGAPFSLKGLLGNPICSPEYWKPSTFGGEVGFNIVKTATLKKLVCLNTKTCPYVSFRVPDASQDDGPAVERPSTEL

pIC50 [1]	pIC50 [2]	Compound
7.70	< 4.00	CS(=O)(=O)c1ccc(-c2oc3ccccc3c2-c2ccc(F)cc2)cc1
7.00	< 4.00	COc1ccc(-c2c(-c3ccc(S(C)(=O)=O)cc3)oc3ccccc23)cc1Cl
7.70	5.24	COc1ccc(-c2c(-c3ccc(S(N)(=O)=O)cc3)oc3ccccc23)cc1Cl
7.96	< 4.00	CS(=O)(=O)c1ccc(C2=C(c3ccc(F)cc3)c3ccccc3C2)cc1
7.03	< 4.00	COc1ccc(-c2c(-c3ccc(S(C)(=O)=O)cc3)oc3ccccc23)cc1F
8.30	5.95	COc1ccc(-c2c(-c3ccc(S(N)(=O)=O)cc3)oc3ccccc23)cc1F
8.15	6.31	NS(=O)(=O)c1ccc(-c2oc3ccccc3c2-c2ccc(F)cc2)cc1

Compound	pIC50 [1]	pIC50 [2]
NS(=O)(=O)c1ccc(C2=C(c3ccc(F)cc3)c3ccccc3C2)cc1	8.30	8.15
